From paper PMC9127750, “Structure-based design of CDC42 effector interaction inhibitors for the treatment of cancer” (Cell reports, 2022)
Values joined by “and” are separate entries in the source; they are usually repeats but may differ in a detail not shown here. Equal entries are not always repeated.

System: WM3248 melanoma cells, 486 antibodies
Assay: Reverse phase protein arrays (RPPA);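 on RPPA ACC1.R.C: ratio of treated to vehicle (0 µM) normalized linear protein signal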;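 on RPPA AMPK.a2 pS345.R.V: ratio of treated to vehicle (0 µM) normalized linear protein signal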;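 on RPPA AMPKa pT172.R.C: ratio of treated to vehicle (0 µM) normalized linear protein signal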;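 on RPPA ASNS.R.V: ratio of treated to vehicle (0 µM) normalized linear protein signal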;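 on RPPA AceCS1.R.V: ratio of treated to vehicle (0 µM) normalized linear protein signal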;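 on RPPA Akt1.R.V: ratio of treated to vehicle (0 µM) normalized linear protein signal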;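 on RPPA Atg5.R.C: ratio of treated to vehicle (0 µM) normalized linear protein signal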
Type: cell-based, Human
Text: Pellets were snap frozen in liquid nitrogen and shipped to MD Anderson Cancer Center core RPPA facility for RPPA analysis (Table S5). Three biological replicates for each sample were generated.
Nomenclatures on the RPPA heatmaps: name_of_antibody.species_of_antibody.status_of_antibody. V - antibody validated; C - validation of antibody in progress; Q - antibody nonspecific; E – under evaluation; antibodies raised in M - mouse, G - goat, R - rabbit, or T - rat.

## CN(C)c1cccc(Nc2cc(-c3ccccc3)nc(C3CCNCC3)n2)c1 [ARN22089, N1,N1-dimethyl-N3-(6-phenyl-2-(piperidin-4-yl)pyrimidin-4-yl)benzene-1,3-diamine]
5 uM, single samples
  RPPA EGFR_pY1068.R.C: 1.000 and 0.953 and 1.026
  RPPA EGFR_pY1173.R.V: 0.975 and 1.083 and 1.079
  RPPA EMA.M.C: 1.076 and 0.967 and 1.014
  RPPA ENY2.M.C: 0.948 and 0.847
  RPPA ER.a.R.V: 0.800 and 1.157 and 1.137
  RPPA ER.a_pS118.R.V: 0.923 and 1.516 and 1.141
  RPPA ERCC1.R.C: 1.055 and 0.895 and 0.971
  RPPA ERCC5.R.C: 1.027 and 0.974 and 0.973
  RPPA ERRalpha.R.V: 1.078 and 0.970 and 0.952
  RPPA EVI1.R.V: 0.942 and 0.941
  RPPA Elk1_pS383.R.C: 0.946 and 1.013 and 1.129
  RPPA Enolase.1.R.V: 1.024 and 0.893 and 0.818
  RPPA Enolase.2.R.V: 0.995 and 0.946
  RPPA EphA2.R.V: 0.776 and 1.046
  RPPA EphA2_pS897.R.C: 0.644 and 1.190 and 1.055
  RPPA EphA2_pY588.R.C: 0.942 and 0.920
  RPPA Erk5.R.V: 1.097 and 1.135
  RPPA Ets.1.R.V: 1.185 and 0.950 and 0.594
  RPPA FAK.R.C: 0.858 and 1.217 and 0.941
  RPPA FAK_pY397.R.V: 1.026 and 0.959 and 1.059
  RPPA FANCD2.R.V: 0.883 and 1.063
  RPPA FASN.R.V: 1.017 and 0.767
  RPPA FGF.basic.R.C: 0.868 and 1.191
  RPPA FN14.R.C: 0.857 and 1.226 and 1.168
  RPPA FOXM1.R.V: 0.885
  RPPA FOXO3.R.V: 0.861 and 0.945 and 1.100
  RPPA FRS2.alpha_pY196.R.V: 0.930 and 0.961 and 0.957
  RPPA FTO.R.V: 1.124 and 0.945 and 0.752
  RPPA FoxO3a_pS318_S321.R.C: 0.918 and 0.939
  RPPA G6PD.R.V: 0.943 and 0.965
  RPPA GATA3.M.V: 0.797 and 0.715
  RPPA GATA6.R.V: 0.919 and 1.005
  RPPA GCLC.R.C: 1.024 and 1.110 and 0.894
  RPPA GCLM.R.V: 0.926 and 0.954
  RPPA GCN5L2.R.V: 0.871 and 1.148
  RPPA GGPS1.M.V: 0.934 and 0.780
  RPPA GRB2.R.V: 0.928 and 1.049 and 1.170
  RPPA GRB7.R.V: 0.960 and 1.157 and 0.957
  RPPA GSK.3B.R.C: 1.001 and 1.019
  RPPA GSK.3a.b.M.V: 0.936 and 0.817
  RPPA GSK.3a.b_pS21_S9.R.V: 0.866 and 1.380 and 0.704
  RPPA Gab2.R.V: 1.251 and 0.896 and 0.910
  RPPA Gli1.R.C: 1.000 and 0.967
  RPPA Gli3.R.C: 0.979 and 1.003 and 0.745
  RPPA Glucocorticoid.Receptor.R.V: 1.035 and 1.000 and 1.021
  RPPA Glutamate.D1.2.R.V: 0.976 and 0.943 and 0.801
  RPPA Glutaminase.R.C: 0.948 and 1.063 and 0.715
  RPPA Granzyme.B.R.V: 0.964 and 1.146
  RPPA Grp75.R.C: 0.944 and 0.963
  RPPA Gys.R.V: 0.967 and 1.080
  RPPA Gys_pS641.R.V: 0.994 and 1.246 and 0.822
  RPPA H2AX_pS139.R.C: 0.914 and 1.103
  RPPA H2AX_pS140.M.C: 1.104 and 0.895 and 0.770
  RPPA HER2.M.V: 0.948 and 0.899
  RPPA HER2_pY1248.R.V: 0.827 and 1.156
  RPPA HER3.R.V: 0.886 and 0.834
  RPPA HER3_pY1289.R.C: 0.992 and 0.888
  RPPA HES1.R.V: 1.367 and 1.154
  RPPA Heregulin.R.V: 0.832 and 1.116 and 1.160
  RPPA eEF2K.R.V: 0.918 and 0.788
  RPPA eIF4E.R.V: 0.941 and 1.515 and 0.898
  RPPA eIF4E_pS209.R.V: 0.935 and 1.281 and 0.858
  RPPA eIF4G.R.C: 1.030 and 0.956 and 1.155
10 uM
  RPPA MYH11.R.C Average: 1.243
  RPPA Myosin.IIa.R.C Average: 0.941
  RPPA Myosin.IIa_pS1943.R.V Average: 1.022
  RPPA Myt1.R.C Average: 0.989
  RPPA N.Cadherin.R.V Average: 1.064
  RPPA N.Ras.M.V Average: 0.991
  RPPA NDRG1_pT346.R.V Average: 1.015
  RPPA NDUFB4.R.V Average: 1.035
  RPPA NRF2.R.C Average: 0.996
  RPPA Notch1.R.V Average: 1.064
  RPPA Notch1.cleaved.R.V Average: 0.926
  RPPA Notch3.R.C Average: 1.098
  RPPA Oct.4.R.C Average: 1.008
  RPPA P.Cadherin.R.C Average: 0.973
  RPPA PAI.1.M.V Average: 1.014
  RPPA PAICS.R.C Average: 0.920
  RPPA PAK1.R.V Average: 0.961
  RPPA PAK4.R.V Average: 1.063
  RPPA PAK_pS474_S602_S560.R.V Average: 1.085
  RPPA PAK_pT423_T402.R.C Average: 0.987
  RPPA PAR.R.C Average: 0.480
  RPPA PARG.R.C Average: 0.970
  RPPA PARP.R.V Average: 1.017
  RPPA PAX6.R.V Average: 1.003
  RPPA PCNA.M.C Average: 0.987
  RPPA PD.1.R.V Average: 1.058
  RPPA PD.L1.R.C Average: 0.976
  RPPA PDH.M.V Average: 1.031
  RPPA PDHA1.R.V Average: 0.986
  RPPA PDHK1.R.C Average: 0.952
  RPPA PDK1_pS241.R.V Average: 0.942
  RPPA PEA.15.R.V Average: 0.922
  RPPA PERK.R.V Average: 1.010
  RPPA PGM1.R.V Average: 0.998
  RPPA PHLPP.R.V Average: 1.083
  RPPA PI3K.p85.R.C Average: 1.062
  RPPA PI3K.p110.a.R.C Average: 0.904
  RPPA PI3K.p110.b.M.C Average: 0.987
  RPPA PKA.a.R.V Average: 0.877
  RPPA PKC.a.b.II_pT638_T641.R.V Average: 0.910
  RPPA PKC.b.II_pS660.R.V Average: 1.018
  RPPA PKCa.R.V Average: 0.991
  RPPA PKM2.R.C Average: 0.940
  RPPA PLC.gamma1.R.V Average: 1.083
  RPPA PLC.gamma1_pS1248.R.V Average: 0.999
  RPPA PLK1.R.C Average: 0.905
  RPPA PR.R.V Average: 1.064
  RPPA PRAS40.M.C Average: 1.049
  RPPA PRAS40_pT246.R.V Average: 0.957
  RPPA Patched.R.C Average: 0.971
  RPPA Paxillin.R.C Average: 0.830
  RPPA Pdcd4.R.C Average: 0.977
  RPPA Porin.M.V Average: 1.020
  RPPA p21.R.C Average: 1.010
  RPPA p27.Kip1.R.C Average: 1.046
  RPPA p27_pT157.R.C Average: 1.014
  RPPA p27_pT198.R.V Average: 1.168
  RPPA p38.MAPK.R.V Average: 0.975
  RPPA p38.a.M.V Average: 1.028
  RPPA p53.R.C Average: 0.908
  RPPA p70.S6K1.R.V Average: 0.918
  RPPA p70.S6K_pT389.R.V Average: 0.996
  RPPA p90RSK_pT573.R.C Average: 1.053
10 uM, 10W1
  RPPA A.Raf.R.V: 0.962
  RPPA ACC1.R.C: 1.063
  RPPA ACC_pS79.R.V: 0.772
  RPPA ACLY_pS455.R.V: 1.099
  RPPA ACSL1.R.V: 0.988
  RPPA ACVRL1.R.C: 1.018
  RPPA ADAR1.M.V: 1.194
  RPPA ALKBH5.R.V: 0.984
  RPPA AMPK.a2_pS345.R.V: 1.028
  RPPA AMPKa.R.C: 0.972
  RPPA AMPKa_pT172.R.C: 0.665
  RPPA AR.R.V: 0.830
  RPPA ASNS.R.V: 0.786
  RPPA ATM_pS1981.R.V: 1.131
  RPPA ATP5A.M.C: 0.979
  RPPA ATP5H.R.V: 1.113
  RPPA ATRX.R.C: 1.033
  RPPA ATR_pS428.R.C: 0.934
  RPPA AceCS1.R.V: 0.931
  RPPA Akt1.R.V: 0.892
  RPPA Akt1_pS473.R.V: 0.970
  RPPA Akt2.R.V: 0.959
  RPPA Akt2_pS474.R.C: 1.062
  RPPA Akt.R.V: 0.917
  RPPA Akt_pS473.R.V: 1.128
  RPPA Akt_pT308.R.V: 0.936
  RPPA Ambra1_pS52.R.C: 1.051
  RPPA Annexin.I.M.V: 1.059
  RPPA Annexin.VII.M.V: 1.077
  RPPA Atg3.R.V: 0.970
  RPPA Atg4B.R.C: 0.890
  RPPA Atg5.R.C: 0.920
  RPPA Atg7.R.V: 0.855
  RPPA Aurora.A.R.C: 0.735
  RPPA Aurora.ABC_pT288_pT232_pT198.R.C: 0.857
  RPPA Aurora.B.R.V: 1.102
  RPPA Axl.R.V: 0.724
